Measured values: PubChem BioAssay (NCI)
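48-hour exposure; five concentrations; linearly interpolated endpoints. GI50 = concentration required for 50% inhibition of growth. TGI denotes the concentration required for complete inhibition of growth.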

Legend:
Experiment in all cases: inhibition of tumour cell growth, NCI panel, 48 h
SW-620 colon = tested on: SW-620 colon
NCI-H23 lung = tested on: NCI-H23 lung
DU-145 prostate = tested on: DU-145 prostate
SNB-75 CNS = tested on: SNB-75 CNS
OVCAR-3 ovarian = tested on: OVCAR-3 ovarian
A549 NSCLC = tested on: A549 NSCLC
UACC-62 melanoma = tested on: UACC-62 melanoma
COLO 205 colon = tested on: COLO 205 colon
RXF 393 renal = tested on: RXF 393 renal
MOLT-4 leukemia = tested on: MOLT-4 leukemia

In the case of `O=C(O)CCC1(CCC(=O)O)CCCCCCCCC(CCC(=O)O)(CCC(=O)O)C(=O)C1=O`, the TGI (SW-620 colon) is reported as greater than 100 µM, the TGI (NCI-H23 lung) is reported as greater than 100 µM and the TGI (DU-145 prostate) is reported as greater than 100 µM. The TGI (SNB-75 CNS) was greater than 100 µM, the TGI (OVCAR-3 ovarian) was greater than 100 µM and the TGI (A549 NSCLC) was greater than 100 µM. It also gave a TGI (UACC-62 melanoma) greater than 100 µM and a TGI (COLO 205 colon) greater than 100 µM.

`COc1cc2c(c(OC)c1)C(=O)C(=O)C(CC1(C)OCCCO1)=C2` was tested, and the TGI (SW-620 colon) was 3.23 µM, the TGI (NCI-H23 lung) was 24.3 µM and the TGI (SNB-75 CNS) was 33.9 µM. It also gave a TGI (RXF 393 renal) of 8.71 µM, a TGI (OVCAR-3 ovarian) of 10.5 µM and a TGI (A549 NSCLC) of 28.3 µM. For the same compound, the TGI (MOLT-4 leukemia) was greater than 29.9 µM, the TGI (UACC-62 melanoma) was 20.2 µM and the TGI (COLO 205 colon) was 9.58 µM.

`COc1cc2cnc3c4cc(O)ccc4ccc3c2cc1OC` gave a TGI (SW-620 colon) greater than 100 µM, a TGI (NCI-H23 lung) greater than 100 µM and a TGI (SNB-75 CNS) greater than 100 µM. The TGI (RXF 393 renal) was greater than 100 µM, the TGI (OVCAR-3 ovarian) was greater than 100 µM and the TGI (A549 NSCLC) was greater than 100 µM. The TGI (MOLT-4 leukemia) was greater than 100 µM, the TGI (UACC-62 melanoma) was greater than 100 µM and the TGI (COLO 205 colon) was 59.8 µM.

`CCOC(=O)C1=C(C)C2C3C(=O)OC(=O)C3C1(C)C1C(=O)OC(=O)C21` (stereo not drawn) was tested, and the TGI (SW-620 colon) was greater than 100 µM, the TGI (NCI-H23 lung) was greater than 100 µM and the TGI (SNB-75 CNS) was greater than 100 µM. For the same compound, the TGI (RXF 393 renal) was greater than 100 µM, the TGI (OVCAR-3 ovarian) was greater than 100 µM and the TGI (A549 NSCLC) was greater than 100 µM. For the same compound, the TGI (MOLT-4 leukemia) was greater than 100 µM, the TGI (UACC-62 melanoma) was greater than 100 µM and the TGI (COLO 205 colon) was greater than 100 µM.

For `CN(CCO)c1nc(=O)c2c(n1C1OC(CO)C(O)C(O)C1O)CCCC2` (stereo not drawn), the TGI (SW-620 colon) was greater than 100 µM, the TGI (NCI-H23 lung) was greater than 100 µM and the TGI (SNB-75 CNS) was greater than 100 µM. The TGI (RXF 393 renal) was greater than 100 µM, the TGI (OVCAR-3 ovarian) was greater than 100 µM and the TGI (A549 NSCLC) was greater than 100 µM. The TGI (MOLT-4 leukemia) was greater than 100 µM, the TGI (UACC-62 melanoma) was greater than 100 µM and the TGI (COLO 205 colon) was greater than 100 µM.

`N#C/C(=C\c1ccccc1F)C(=O)c1ccccc1` gave a TGI (SW-620 colon) greater than 100 µM, a TGI (NCI-H23 lung) greater than 100 µM and a TGI (OVCAR-3 ovarian) greater than 100 µM. It also gave a TGI (A549 NSCLC) greater than 100 µM, a TGI (MOLT-4 leukemia) greater than 100 µM and a TGI (UACC-62 melanoma) greater than 100 µM. The TGI (COLO 205 colon) was greater than 100 µM.

With `O=C(N/N=C/c1cc(Cl)cc(Cl)c1[OH2+])c1ccncc1.O=S(=O)([O-])[O-].[Fe+2]` the TGI (SW-620 colon) was greater than 100 µM, the TGI (NCI-H23 lung) was 51.3 µM and the TGI (SNB-75 CNS) was greater than 100 µM. It also gave a TGI (RXF 393 renal) of 82.1 µM, a TGI (OVCAR-3 ovarian) of 53.8 µM and a TGI (A549 NSCLC) of 53.9 µM. For the same compound, the TGI (MOLT-4 leukemia) was 40 µM, the TGI (UACC-62 melanoma) was 41 µM and the TGI (COLO 205 colon) was 40.5 µM.

`COc1ccc(OC)c(CCc2ccccc2CC(=O)O)c1` gave a TGI (SW-620 colon) greater than 100 µM, a TGI (NCI-H23 lung) greater than 100 µM and a TGI (SNB-75 CNS) greater than 100 µM. It also gave a TGI (RXF 393 renal) greater than 100 µM, a TGI (OVCAR-3 ovarian) greater than 100 µM and a TGI (A549 NSCLC) greater than 100 µM. It also gave a TGI (MOLT-4 leukemia) greater than 100 µM, a TGI (UACC-62 melanoma) greater than 100 µM and a TGI (COLO 205 colon) greater than 100 µM.

Compound `CCC/C=C/C=C\C(=O)O[C@@H]1[C@@H](C)[C@]2(O)[C@@H]3C=C(C)C(=O)[C@H]3CC(COC(C)=O)=C[C@H]2[C@@H]2C(C)(C)[C@]12OC(C)=O` has a TGI (SW-620 colon) of 70 µM, a TGI (NCI-H23 lung) of 98.6 µM and a TGI (SNB-75 CNS) of 121 µM. For the same compound, the TGI (RXF 393 renal) was 113 µM, the TGI (OVCAR-3 ovarian) was 91.2 µM and the TGI (A549 NSCLC) was 97.6 µM. The TGI (MOLT-4 leukemia) was 85.2 µM, the TGI (UACC-62 melanoma) was 82.5 µM and the TGI (COLO 205 colon) was 22.5 µM.

With `N#CCCN(c1ccc(C=Nc2ccc(C(=O)O)cc2)cc1)S(=O)(=O)c1ccccc1` the TGI (SW-620 colon) was greater than 100 µM, the TGI (NCI-H23 lung) was greater than 100 µM and the TGI (SNB-75 CNS) was greater than 100 µM. The TGI (RXF 393 renal) was greater than 100 µM, the TGI (OVCAR-3 ovarian) was greater than 100 µM and the TGI (A549 NSCLC) was greater than 100 µM. The TGI (MOLT-4 leukemia) was greater than 100 µM, the TGI (UACC-62 melanoma) was greater than 100 µM and the TGI (COLO 205 colon) was greater than 100 µM.

For `Cc1cc(N(CCC#N)CCC#N)ccc1/C=C(\N=[N+]=[N-])C(=O)NC(=O)COc1ccccc1`, the TGI (SW-620 colon) was greater than 100 µM, the TGI (NCI-H23 lung) was greater than 100 µM and the TGI (SNB-75 CNS) was greater than 67.2 µM. For the same compound, the TGI (RXF 393 renal) was 97.5 µM, the TGI (OVCAR-3 ovarian) was greater than 100 µM and the TGI (A549 NSCLC) was greater than 100 µM. For the same compound, the TGI (MOLT-4 leukemia) was greater than 100 µM, the TGI (UACC-62 melanoma) was greater than 100 µM and the TGI (COLO 205 colon) was greater than 100 µM.

`CCOC(=O)C(C(=O)OCC)S(C)(=O)=O` showed a TGI (SW-620 colon) greater than 100 µM, a TGI (NCI-H23 lung) greater than 100 µM and a TGI (RXF 393 renal) greater than 100 µM. The TGI (OVCAR-3 ovarian) was greater than 100 µM, the TGI (A549 NSCLC) was greater than 100 µM and the TGI (MOLT-4 leukemia) was greater than 100 µM. It also gave a TGI (UACC-62 melanoma) greater than 100 µM and a TGI (COLO 205 colon) greater than 100 µM.

`CC(=O)C(C(=O)C(=O)Nc1cc(Cl)c(Cl)cc1Cl)c1csc(N)n1` (stereo not drawn) was tested, and the TGI (SW-620 colon) was greater than 100 µM, the TGI (NCI-H23 lung) was greater than 100 µM and the TGI (SNB-75 CNS) was greater than 100 µM. The TGI (RXF 393 renal) was greater than 100 µM, the TGI (A549 NSCLC) was greater than 100 µM and the TGI (MOLT-4 leukemia) was greater than 100 µM. It also gave a TGI (UACC-62 melanoma) greater than 100 µM and a TGI (COLO 205 colon) greater than 100 µM.

`COc1cc(Cn2c3ccccc3c3cc(C)cc(OC)c32)cc2c1[nH]c1ccccc12` was tested, and the GI50 (SW-620 colon) was 13.4 µM, the TGI (SW-620 colon) was greater than 25 µM and the TGI (OVCAR-3 ovarian) was greater than 25 µM. It also gave a GI50 (A549 NSCLC) of 23.2 µM, a TGI (A549 NSCLC) greater than 25 µM and a GI50 (MOLT-4 leukemia) of 8.51 µM. It also gave a TGI (MOLT-4 leukemia) greater than 25 µM, a GI50 (UACC-62 melanoma) of 15 µM and a TGI (UACC-62 melanoma) greater than 25 µM. The TGI (COLO 205 colon) was greater than 25 µM.

With `NCCCC(N)(C(=O)O)C(F)F` (stereo not drawn) the TGI (SW-620 colon) was greater than 5000 µM, the TGI (NCI-H23 lung) was greater than 5000 µM and the TGI (SNB-75 CNS) was greater than 5000 µM. For the same compound, the TGI (RXF 393 renal) was greater than 5000 µM, the TGI (OVCAR-3 ovarian) was greater than 5000 µM and the TGI (A549 NSCLC) was greater than 5000 µM. For the same compound, the TGI (MOLT-4 leukemia) was greater than 5000 µM, the TGI (UACC-62 melanoma) was greater than 5000 µM and the TGI (COLO 205 colon) was greater than 5000 µM.

`CCCCCC1CC(C(C)=O)CN1c1ccc(F)cc1` (stereo not drawn) was tested, and the TGI (SW-620 colon) was greater than 100 µM, the TGI (NCI-H23 lung) was 63.8 µM and the TGI (SNB-75 CNS) was 86.5 µM. For the same compound, the TGI (RXF 393 renal) was greater than 100 µM, the TGI (OVCAR-3 ovarian) was 90.1 µM and the TGI (A549 NSCLC) was greater than 100 µM. For the same compound, the TGI (COLO 205 colon) was greater than 100 µM.

`O=C1CS(=O)c2ccccc2N1` (stereo not drawn) gave a TGI (NCI-H23 lung) greater than 100 µM, a TGI (SNB-75 CNS) greater than 100 µM and a TGI (RXF 393 renal) greater than 100 µM. The TGI (OVCAR-3 ovarian) was greater than 100 µM, the TGI (A549 NSCLC) was greater than 100 µM and the TGI (MOLT-4 leukemia) was greater than 100 µM. The TGI (UACC-62 melanoma) was greater than 100 µM and the TGI (COLO 205 colon) was greater than 100 µM.

With `Cc1nc2c(n1Cc1ccc(F)cc1)C(=O)c1ccccc1C2=O` the TGI (SW-620 colon) was greater than 100 µM, the TGI (NCI-H23 lung) was greater than 100 µM and the TGI (SNB-75 CNS) was greater than 100 µM. The TGI (RXF 393 renal) was 87.3 µM, the TGI (OVCAR-3 ovarian) was 48.6 µM and the TGI (A549 NSCLC) was greater than 100 µM. It also gave a TGI (MOLT-4 leukemia) greater than 100 µM, a TGI (UACC-62 melanoma) of 32.3 µM and a TGI (COLO 205 colon) greater than 100 µM.

With `O=C(O)C1Cc2[nH]c3ccccc3c2C2CCCC12` (stereo not drawn) the TGI (SW-620 colon) was greater than 100 µM, the TGI (NCI-H23 lung) was greater than 100 µM and the TGI (SNB-75 CNS) was greater than 100 µM. It also gave a TGI (OVCAR-3 ovarian) greater than 100 µM, a TGI (A549 NSCLC) greater than 100 µM and a TGI (MOLT-4 leukemia) greater than 100 µM. It also gave a TGI (UACC-62 melanoma) greater than 100 µM and a TGI (COLO 205 colon) greater than 100 µM.
